≈ marks a conversion by molar mass, not a printed value. Calls of active or inactive are those of the source. The rule behind the calls is not given here.
Columns and labels:
Streptococcus pneumoniae [1] = test: Antibacterial activity against erythromycin-resistant Streptococcus pneumoniae SPN19-8 assessed as inhibition of visible bacterial growth incubated for 18 hrs by broth microdilution method; format: functional
Streptococcus pneumoniae [2] = test: Antibacterial activity against erythromycin-resistant Streptococcus pneumoniae SPN19-14 assessed as inhibition of visible bacterial growth incubated for 18 hrs by broth microdilution method; format: functional
[3] = tested on: Staphylococcus epidermidis; test: Antibacterial activity against erythromycin-resistant Staphylococcus epidermidis 19-9 assessed as inhibition of visible bacterial growth incubated for 18 hrs by broth microdilution method; format: functional
Staphylococcus aureus = test: Antibacterial activity against Staphylococcus aureus ATCC 700699 assessed as inhibition of visible bacterial growth; format: functional
[4] = Cytotoxicity against mouse AML12 cells assessed as reduction in cell viability incubated for 48 hrs by MTT assay; format: toxicity, cell-based
[5] = tested on: Staphylococcus epidermidis; test: Antibacterial activity against erythromycin-resistant Staphylococcus epidermidis 19-5 assessed as inhibition of visible bacterial growth incubated for 18 hrs by broth microdilution method; format: functional
Moraxella catarrhalis [6] = test: Antibacterial activity against Moraxella catarrhalis BCA 19-5 assessed as inhibition of bacterial growth incubated for 24 hrs by CLSI based broth microdilution method; format: functional; conditions: Moraxella catarrhalis, BCA 19-5, 24 h, read-out: MIC
[7] = tested on: Staphylococcus epidermidis; test: Antibacterial activity against erythromycin-resistant Staphylococcus epidermidis 19-8 assessed as inhibition of visible bacterial growth incubated for 18 hrs by broth microdilution method; format: functional
[8] = tested on: Staphylococcus epidermidis; test: Antibacterial activity against erythromycin-resistant Staphylococcus epidermidis 19-11 assessed as inhibition of visible bacterial growth incubated for 18 hrs by broth microdilution method; format: functional
Streptococcus agalactiae [9] = test: Antibacterial activity against erythromycin-resistant Streptococcus agalactiae 19-9 assessed as inhibition of visible bacterial growth incubated for 18 hrs by broth microdilution method; format: functional
[10] = tested on: Staphylococcus epidermidis; test: Antibacterial activity against erythromycin-resistant Staphylococcus epidermidis 19-4 assessed as inhibition of visible bacterial growth incubated for 18 hrs by broth microdilution method; format: functional
Streptococcus pyogenes = test: Antibacterial activity against erythromycin-resistant Streptococcus pyogenes ATCC 19615 assessed as inhibition of visible bacterial growth incubated for 18 hrs by broth microdilution method; format: functional
Enterococcus faecium = test: Antibacterial activity against vancomycin-resistant Enterococcus faecium assessed as inhibition of visible bacterial growth; format: functional
[11] = tested on: Staphylococcus epidermidis; test: Antibacterial activity against erythromycin-resistant Staphylococcus epidermidis 19-6 assessed as inhibition of visible bacterial growth incubated for 18 hrs by broth microdilution method; format: functional
Moraxella catarrhalis [12] = test: Antibacterial activity against Moraxella catarrhalis BCA 19-6 assessed as inhibition of bacterial growth incubated for 24 hrs by CLSI based broth microdilution method; format: functional; conditions: Moraxella catarrhalis, BCA 19-6, 24 h, read-out: MIC
Haemophilus influenzae [13] = test: Antibacterial activity against Haemophilus influenzae HIN 19-15 assessed as inhibition of bacterial growth incubated for 20 to 24 hrs by CLSI based broth microdilution method; format: functional; conditions: time 20-24 hrs
Streptococcus pneumoniae [14] = test: Antibacterial activity against erythromycin-resistant Streptococcus pneumoniae SPN19-13 assessed as inhibition of visible bacterial growth incubated for 18 hrs by broth microdilution method; format: functional
Moraxella catarrhalis [15] = test: Antibacterial activity against Moraxella catarrhalis BCA 19-31 assessed as inhibition of bacterial growth incubated for 24 hrs by CLSI based broth microdilution method; format: functional; conditions: BCA 19-31, 24 h
[16] = tested on: Staphylococcus epidermidis; test: Potency index, ratio of telithromycin MIC to test compound MIC for antibacterial activity against erythromycin-resistant Staphylococcus epidermidis 19-9 assessed as inhibition of visible bacterial growth incubated for 18 hrs by broth microdilution method; format: functional
Escherichia coli = test: Antibacterial activity against Escherichia coli ATCC 35218 assessed as inhibition of visible bacterial growth; format: functional, organism-based
Streptococcus agalactiae [17] = test: Antibacterial activity against erythromycin-resistant Streptococcus agalactiae 19-8 assessed as inhibition of visible bacterial growth incubated for 18 hrs by broth microdilution method; format: functional
[18] = tested on: Staphylococcus epidermidis; test: Potency index, ratio of telithromycin MIC to test compound MIC for antibacterial activity against erythromycin-resistant Staphylococcus epidermidis 19-11 assessed as inhibition of visible bacterial growth incubated for 18 hrs by broth microdilution method; format: functional
Streptococcus pneumoniae [19] = test: Potency index, ratio of telithromycin MIC to test compound MIC for antibacterial activity against Streptococcus pneumoniae SPN19-13 assessed as inhibition of visible bacterial growth incubated for 18 hrs by broth microdilution method; format: functional
[20] = tested on: Staphylococcus epidermidis; test: Potency index, ratio of telithromycin MIC to test compound MIC for antibacterial activity against erythromycin-resistant Staphylococcus epidermidis 19-4 assessed as inhibition of visible bacterial growth incubated for 18 hrs by broth microdilution method; format: functional
[21] = tested on: Staphylococcus epidermidis; test: Potency index, ratio of telithromycin MIC to test compound MIC for antibacterial activity against erythromycin-resistant Staphylococcus epidermidis 19-6 assessed as inhibition of visible bacterial growth incubated for 18 hrs by broth microdilution method; format: functional
[22] = tested on: Staphylococcus epidermidis; test: Potency index, ratio of telithromycin MIC to test compound MIC for antibacterial activity against erythromycin-resistant Staphylococcus epidermidis 19-8 assessed as inhibition of visible bacterial growth incubated for 18 hrs by broth microdilution method; format: functional
Streptococcus pneumoniae [23] = test: Potency index, ratio of telithromycin MIC to test compound MIC for antibacterial activity against Streptococcus pneumoniae SPN19-8 assessed as inhibition of visible bacterial growth incubated for 18 hrs by broth microdilution method; format: functional
Streptococcus pneumoniae [24] = test: Potency index, ratio of telithromycin MIC to test compound MIC for antibacterial activity against Streptococcus pneumoniae SPN19-14 assessed as inhibition of visible bacterial growth incubated for 18 hrs by broth microdilution method; format: functional
Haemophilus influenzae [25] = test: Antibacterial activity against Haemophilus influenzae HIN 19-18 assessed as inhibition of bacterial growth incubated for 20 to 24 hrs by CLSI based broth microdilution method; format: functional; conditions: HIN 19-18, time 20-24 hrs
[26] = tested on: Staphylococcus epidermidis; test: Potency index, ratio of telithromycin MIC to test compound MIC for antibacterial activity against erythromycin-resistant Staphylococcus epidermidis 19-5 assessed as inhibition of visible bacterial growth incubated for 18 hrs by broth microdilution method; format: functional
Haemophilus influenzae [27] = test: Antibacterial activity against Haemophilus influenzae HIN 20-18 assessed as inhibition of bacterial growth incubated for 20 to 24 hrs by CLSI based broth microdilution method; format: functional; conditions: time 20-24 hrs

CC[C@H]1OC(=O)[C@@](C)(F)C(=O)[C@H](C)[C@@H](O[C@@H]2O[C@H](C)C[C@H](N(C)C)[C@H]2O)[C@](C)(OC)C[C@@H](C)C(=O)[C@H](C)[C@H]2N(CCCOC(=O)Nc3ccc(C(F)(F)F)cc3)C(=O)O[C@]12C
MIC (Streptococcus pneumoniae [1]): 0.125 µg/mL (≈ 0.143 µM) | MIC (Streptococcus pneumoniae [2]): 0.125 µg/mL (≈ 0.143 µM) | MIC [3]: 0.25 µg/mL (≈ 0.285 µM) | MIC (Staphylococcus aureus): 16 µg/mL (≈ 18.3 µM) | CC50 at 48 h [4]: 19.6 µM | MIC [5]: < 0.03 µg/mL | MIC (Moraxella catarrhalis [6]): 0.125 µg/mL (≈ 0.143 µM) | MIC [7]: 0.06 µg/mL (≈ 0.0685 µM) | MIC [8]: < 0.03 µg/mL | MIC (Streptococcus agalactiae [9]): 1 µg/mL (≈ 1.14 µM) | MIC [10]: 0.03 µg/mL (≈ 0.0342 µM) | MIC (Streptococcus pyogenes): < 0.03 µg/mL | MIC (Enterococcus faecium): 16 µg/mL (≈ 18.3 µM) | MIC [11]: 0.125 µg/mL (≈ 0.143 µM) | MIC (Moraxella catarrhalis [12]): 0.125 µg/mL (≈ 0.143 µM) | MIC (Haemophilus influenzae [13]): 4 µg/mL (≈ 4.57 µM) | MIC (Streptococcus pneumoniae [14]): 0.125 µg/mL (≈ 0.143 µM) | MIC (Moraxella catarrhalis [15]): 0.06 µg/mL (≈ 0.0685 µM)

CC[C@H]1OC(=O)[C@@](C)(F)C(=O)[C@H](C)[C@@H](O[C@@H]2O[C@H](C)C[C@H](N(C)C)[C@H]2O)[C@](C)(OC)C[C@@H](C)C(=O)[C@H](C)[C@H]2N(CCCOC(=O)Nc3cccc4ccccc34)C(=O)O[C@]12C
MIC (Streptococcus pneumoniae [1]): < 0.03 µg/mL | Ratio [16]: 4 | Activity (Escherichia coli): Active | MIC (Streptococcus pneumoniae [2]): < 0.03 µg/mL | MIC [3]: 0.125 µg/mL (≈ 0.146 µM) | MIC (Streptococcus agalactiae [17]): < 0.03 µg/mL | Ratio [18]: 4 | CC50 at 48 h [4]: 29.4 µM | MIC [5]: < 0.03 µg/mL | MIC (Moraxella catarrhalis [6]): < 0.03 µg/mL | Ratio (Streptococcus pneumoniae [19]): <4 | MIC [7]: < 0.03 µg/mL | MIC [8]: < 0.03 µg/mL | MIC (Streptococcus agalactiae [9]): < 0.03 µg/mL | MIC [10]: < 0.03 µg/mL | Ratio [20]: 4 | Ratio [21]: 4 | Ratio [22]: 4 | MIC (Streptococcus pyogenes): < 0.03 µg/mL | MIC (Enterococcus faecium): 16 µg/mL (≈ 18.6 µM) | MIC [11]: < 0.03 µg/mL | MIC (Moraxella catarrhalis [12]): < 0.03 µg/mL | MIC (Haemophilus influenzae [13]): 4 µg/mL (≈ 4.66 µM) | Ratio (Streptococcus pneumoniae [23]): <4 | Ratio (Streptococcus pneumoniae [24]): <4 | MIC (Streptococcus pneumoniae [14]): < 0.03 µg/mL | MIC (Moraxella catarrhalis [15]): < 0.03 µg/mL | MIC (Haemophilus influenzae [25]): 4 µg/mL (≈ 4.66 µM) | Ratio [26]: 4

CCOc1ccccc1NC(=O)OCCCN1C(=O)O[C@]2(C)[C@@H](CC)OC(=O)[C@@](C)(F)C(=O)[C@H](C)[C@@H](O[C@@H]3O[C@H](C)C[C@H](N(C)C)[C@H]3O)[C@](C)(OC)C[C@@H](C)C(=O)[C@H](C)[C@@H]12
MIC (Streptococcus pneumoniae [1]): 0.125 µg/mL (≈ 0.147 µM) | MIC (Streptococcus pneumoniae [2]): 0.06 µg/mL (≈ 0.0704 µM) | MIC [3]: 0.5 µg/mL (≈ 0.587 µM) | MIC (Staphylococcus aureus): 16 µg/mL (≈ 18.8 µM) | CC50 at 48 h [4]: > 100 µM | MIC [5]: < 0.03 µg/mL | MIC (Moraxella catarrhalis [6]): 0.125 µg/mL (≈ 0.147 µM) | MIC (Haemophilus influenzae [27]): 8 µg/mL (≈ 9.39 µM) | MIC [7]: 0.06 µg/mL (≈ 0.0704 µM) | MIC [8]: 0.16 µg/mL (≈ 0.188 µM) | MIC (Streptococcus agalactiae [9]): 0.25 µg/mL (≈ 0.293 µM) | MIC [10]: 0.06 µg/mL (≈ 0.0704 µM) | MIC (Streptococcus pyogenes): < 0.03 µg/mL | MIC [11]: 0.125 µg/mL (≈ 0.147 µM) | MIC (Moraxella catarrhalis [12]): 0.125 µg/mL (≈ 0.147 µM) | MIC (Haemophilus influenzae [13]): 4 µg/mL (≈ 4.69 µM) | MIC (Streptococcus pneumoniae [14]): 0.06 µg/mL (≈ 0.0704 µM) | MIC (Moraxella catarrhalis [15]): 0.03 µg/mL (≈ 0.0352 µM) | MIC (Haemophilus influenzae [25]): 2 µg/mL (≈ 2.35 µM)

CC[C@H]1OC(=O)[C@@](C)(F)C(=O)[C@H](C)[C@@H](O[C@@H]2O[C@H](C)C[C@H](N(C)C)[C@H]2O)[C@](C)(OC)C[C@@H](C)C(=O)[C@H](C)[C@H]2N(CCCOC(=O)Nc3cccc(F)c3)C(=O)O[C@]12C
MIC (Streptococcus pneumoniae [1]): < 0.03 µg/mL | Ratio [16]: 4 | Activity (Escherichia coli): Active | MIC (Streptococcus pneumoniae [2]): < 0.03 µg/mL | MIC [3]: < 0.03 µg/mL | MIC (Streptococcus agalactiae [17]): < 0.03 µg/mL | Ratio [18]: 4 | CC50 at 48 h [4]: 33.7 µM | MIC [5]: < 0.03 µg/mL | MIC (Moraxella catarrhalis [6]): < 0.03 µg/mL | Ratio (Streptococcus pneumoniae [19]): <4 | MIC [7]: < 0.03 µg/mL | MIC [8]: < 0.03 µg/mL | MIC (Streptococcus agalactiae [9]): 0.06 µg/mL (≈ 0.0726 µM) | MIC [10]: < 0.03 µg/mL | Ratio [20]: 4 | Ratio [21]: 4 | Ratio [22]: 4 | MIC (Streptococcus pyogenes): < 0.03 µg/mL | MIC [11]: < 0.03 µg/mL | MIC (Moraxella catarrhalis [12]): < 0.03 µg/mL | MIC (Haemophilus influenzae [13]): 8 µg/mL (≈ 9.69 µM) | Ratio (Streptococcus pneumoniae [23]): <4 | Ratio (Streptococcus pneumoniae [24]): <4 | MIC (Streptococcus pneumoniae [14]): < 0.03 µg/mL | MIC (Moraxella catarrhalis [15]): < 3 µg/mL | MIC (Haemophilus influenzae [25]): 4 µg/mL (≈ 4.84 µM) | Ratio [26]: 4

Reference: ChEMBL document CHEMBL5543097, “Synthesis and structure-activity relationships of novel 14-membered 2-fluoro ketolides with structural modification at the C11 position” (Eur J Med Chem, 2024)
